According to publication PMC3933693, “Novel Inhibitors of Mitochondrial sn-Glycerol 3-phosphate Dehydrogenase” (PLoS ONE, 2014):
Several values for one entry are separate records, joined by “and”; a condition that tells them apart may be missing. Equal values may be shown once. One block for each compound: values may come before it.

Legend:
cortical synaptosomes = test: Synaptosomal respiration (Seahorse XF24); format: cell-based, mouse; conditions: 100 µM iGP-1, 0.5 mM aminooxyacetate
Description: Synaptosomal respiration was tested in the Seahorse XF24 using published protocols, [41]. Synaptosomes (20 or 25 µg protein) were attached to polyethyleneimine and Geltrex-coated Seahorse plates by centrifugation in ionic medium, [41] containing 10 mM glucose. Attachment buffer was carefully replaced with ionic buffer containing DMSO, 100 µM iGP-1, 0.5 mM aminooxyacetate, or iGP-1 with aminooxyacetate, and either 10 mM pyruvate or 15 mM glucose. Plates were equilibrated for 20 min at 37°C then loaded into the instrument followed by measurement of basal respiration and injection of 5 µM FCCP (to induce maximal, uncoupled respiration) with 4 µg ⋅ mL^−1 oligomycin (to prevent compensatory reversal of ATP synthase). In some experiments, 10 mM oxamate was added with the FCCP/oligomycin to minimize regeneration of cytosolic NAD^+ by lactate dehydrogenase. Inhibition of the malate-aspartate shuttle was defined as the difference between maximal rates ± aminooxyacetate, expressed as % of control. Inhibition of the glycerol phosphate shuttle was the difference between maximal rates with aminooxyacetate ± iGP-1, as % of control.

mGPDH [1] = target: T1, mGPDH (Rattus norvegicus, UniProt P35571); test: Superoxide/H2O2 production by mGPDH in isolated skeletal muscle mitochondria (Amplex UltraRed); format: biochemical
T1 construct: Activity of mGPDH in frozen-thawed skeletal muscle mitochondria was measured; from tissue; host or cells: skeletal muscle mitochondria
T1 sequence (P35571 43-727): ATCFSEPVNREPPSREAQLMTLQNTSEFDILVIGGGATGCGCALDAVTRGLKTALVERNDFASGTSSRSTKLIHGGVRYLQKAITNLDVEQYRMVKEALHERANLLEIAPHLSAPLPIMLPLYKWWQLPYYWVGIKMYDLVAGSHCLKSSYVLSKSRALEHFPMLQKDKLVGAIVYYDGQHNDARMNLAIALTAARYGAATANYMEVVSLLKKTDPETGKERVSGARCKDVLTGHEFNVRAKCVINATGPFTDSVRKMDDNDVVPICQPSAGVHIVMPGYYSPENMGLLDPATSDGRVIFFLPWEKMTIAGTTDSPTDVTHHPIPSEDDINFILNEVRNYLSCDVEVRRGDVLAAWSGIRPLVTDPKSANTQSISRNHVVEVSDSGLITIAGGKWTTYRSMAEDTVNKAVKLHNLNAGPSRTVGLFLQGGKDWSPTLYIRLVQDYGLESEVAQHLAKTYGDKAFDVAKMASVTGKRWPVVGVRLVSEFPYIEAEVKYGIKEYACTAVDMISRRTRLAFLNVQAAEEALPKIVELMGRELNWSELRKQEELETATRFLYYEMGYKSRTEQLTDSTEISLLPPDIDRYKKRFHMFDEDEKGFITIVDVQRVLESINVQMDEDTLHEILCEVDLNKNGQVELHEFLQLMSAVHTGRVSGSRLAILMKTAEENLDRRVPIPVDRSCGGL

[2] = test system: skeletal muscle mitochondria; test: Mitochondrial membrane potential (ΔΨm, TMRM) powered by glycerol phosphate; format: biochemical, rat; conditions: 16.7 mM glycerol phosphate
[3] = target: T2, flavin site of complex II (site IIF) (Rattus norvegicus, UniProt Q920L2); test: Site-specific H2O2 production from site IIF in skeletal muscle mitochondria; format: biochemical; conditions: 0.5 mM succinate, rotenone, myxothiazol, antimycin A; Fig. 2B
T2 construct: from tissue; host or cells: skeletal muscle mitochondria
T2 sequence (Q920L2 35-656): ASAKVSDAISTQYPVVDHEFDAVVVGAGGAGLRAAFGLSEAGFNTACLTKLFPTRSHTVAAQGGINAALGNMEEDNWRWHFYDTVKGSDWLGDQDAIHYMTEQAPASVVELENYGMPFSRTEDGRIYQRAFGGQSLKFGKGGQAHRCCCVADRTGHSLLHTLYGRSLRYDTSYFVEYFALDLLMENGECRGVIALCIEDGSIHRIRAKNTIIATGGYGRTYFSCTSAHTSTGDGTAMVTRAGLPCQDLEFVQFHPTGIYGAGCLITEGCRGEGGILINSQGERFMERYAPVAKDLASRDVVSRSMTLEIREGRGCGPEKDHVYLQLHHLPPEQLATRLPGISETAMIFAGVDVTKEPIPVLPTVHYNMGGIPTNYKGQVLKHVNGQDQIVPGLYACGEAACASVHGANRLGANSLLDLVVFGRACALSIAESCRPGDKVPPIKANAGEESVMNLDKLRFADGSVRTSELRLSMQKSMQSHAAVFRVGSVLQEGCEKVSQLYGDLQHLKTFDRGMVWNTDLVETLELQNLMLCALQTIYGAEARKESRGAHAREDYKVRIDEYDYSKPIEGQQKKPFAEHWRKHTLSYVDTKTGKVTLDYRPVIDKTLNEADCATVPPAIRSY
T2 sequence (P21913 31-282 partner): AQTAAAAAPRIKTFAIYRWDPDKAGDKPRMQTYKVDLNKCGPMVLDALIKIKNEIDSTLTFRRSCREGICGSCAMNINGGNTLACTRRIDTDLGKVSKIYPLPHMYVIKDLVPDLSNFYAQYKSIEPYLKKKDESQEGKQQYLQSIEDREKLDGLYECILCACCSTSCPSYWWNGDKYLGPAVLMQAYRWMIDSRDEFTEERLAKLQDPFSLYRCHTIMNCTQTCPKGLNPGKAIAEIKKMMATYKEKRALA
T2 sequence (Q641Z9 30-169 partner limits assumed): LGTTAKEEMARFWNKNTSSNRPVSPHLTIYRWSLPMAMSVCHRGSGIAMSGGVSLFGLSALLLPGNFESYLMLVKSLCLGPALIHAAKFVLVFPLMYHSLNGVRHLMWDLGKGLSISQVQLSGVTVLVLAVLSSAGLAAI
T2 sequence (Q6PCT8 57-159 partner): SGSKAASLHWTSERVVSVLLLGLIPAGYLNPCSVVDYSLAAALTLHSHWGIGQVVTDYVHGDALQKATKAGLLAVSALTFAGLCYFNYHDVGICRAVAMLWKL
Outline: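 Isolated rat skeletal muscle mitochondria; H2O2 read by Amplex UltraRed with added SOD and HRP. Site IF/DH: 5 mM glutamate, 5 mM malate, 4 µM rotenone. Site IIF: palmitoylcarnitine or succinate with rotenone/antimycin A/myxothiazol. Site IIIQo: succinate, rotenone, antimycin A. Screen at 2.5 µM, normalised as % change from DMSO.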

[4] = test system: skeletal muscle mitochondria; test: Mitochondrial membrane potential (ΔΨm, TMRM) powered by succinate; format: biochemical, rat; conditions: 2.5 mM; 5 mM succinate, rotenone, nigericin
Description: Mitochondrial membrane potential (ΔΨm) was estimated fluorimetrically as described previously on the Varian fluorimeter, except the potentiometric dye TMRM was used in quench-mode in place of safranine O [34]. […] The effect of putative small-molecule inhibitors was normalized as the % change in fluorescence between vehicle treatment and complete depolarization by the uncoupler carbonyl cyanide-4-(trifluoromethoxy)phenylhydrazone (FCCP, 2 µM) added at the end of each run. When indicated, the K^+/H^+ exchanger nigericin (80 ng ⋅ ml^−1) was added to collapse the pH gradient across the mitochondrial inner membrane (ΔpH) and maximize ΔΨm.
The assay buffer for both H2O2 and ΔΨm measurements was 120 mM KCl, 5 mM HEPES, 1 mM EGTA, 0.3% (w/v) BSA without or with 250 nM free calcium at pH 7.0. All assays were performed with stirring at 37°C.
Structure/activity analysis was performed on 18 structural analogs of two structurally-related hits from the primary screen (iGP-1 and iGP-2). These 20 compounds were tested in duplicate at 0.08–80 µM (0.1% DMSO final) in microplate format for effects on site-specific H2O2 production as described above. Additionally, four microplate assays for ΔΨm were run in parallel to the H2O2 assays. These assays were as described under “Measurement of mitochondrial H2O2 production and membrane potential” except that each substrate condition was assayed in a separate microplate. […] Plates were incubated in the dark at room temperature for 30–40 min (H2O2) or 10–15 min (ΔΨm) after the addition of substrate, and endpoint fluorescence was measured on the Victor plate reader. Endpoints were chosen for the H2O2 assays to provide good signal-to-noise ratios and linear rates of change without the indicator dye limiting the reaction. Endpoints for the ΔΨm assays were determined in pilot experiments as the times for TMRM accumulation to reach a steady state. […] Endpoint fluorescence values were normalized as described in the previous section with wells containing FCCP serving as positive controls for the ΔΨm assays.

[5] = test system: ubiquinone-binding site of complex I (site IQ); test: Site-specific H2O2 production from site IQ in skeletal muscle mitochondria; format: biochemical, rat; conditions: 80 μM; 5 mM succinate;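 also: H2O2 from superoxide detected by Amplex UltraRed fluorescence with added superoxide dismutase and horseradish peroxidase, endpoint read 30–40 min after substrate addition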
[6] = test system: skeletal muscle mitochondria; test: Mitochondrial membrane potential (ΔΨm, TMRM) powered by glutamate plus malate; format: biochemical, rat
mGPDH [7] = target: T1, mGPDH; test: mGPDH enzymatic activity (DCPIP-linked reduction by glycerol phosphate) in frozen-thawed skeletal muscle mitochondria; format: biochemical
Description: Activity of mGPDH in frozen-thawed skeletal muscle mitochondria was measured as 2,6-dichlorophenolindophenol (DCPIP)-linked reduction by glycerol phosphate as described previously in the presence of 1 µM free calcium. Linear rates of change in absorbance (λ = 600 nm) were measured on the PHERAstar microplate reader and converted to rates of DCPIP reduction using an extinction coefficient of 21 mM^−1 ⋅ cm^−1 and a calculated pathlength of 0.6 cm. Kinetic parameters and inhibitor constants were determined by co-varying glycerol phosphate and novel inhibitors according to recommended procedures and calculated for each data set using GraphPad Prism. Vmax and Km were determined using hyperbolic curves fit to the Michaelis-Menten equation: rate = (Vmax ⋅ [substrate]) ⋅ (K m+[substrate])^ −1. Hill Slope and IC50 were determined using unconstrained, sigmoidal dose-response curve fits of % remaining activity against concentration of iGP. K ic and K iu were determined using plots of rate^−1 vs iGP and GP ⋅ rate^−1 vs iGP, respectively. Linear regression analysis yielded an average x-coordinate at which the best-fit lines intersect. These x-coordinates correspond to -K ic and -K iu in their respective plots. The apparent Vmax of mGPDH is dependent upon the concentration of DCPIP used, [38]. Therefore, to determine the maximal activity of mGPDH in isolated synaptosomes, DCPIP was replaced by 1 mM potassium ferricyanide and linear rates of change in absorbance (λ = 420 nm) were converted to rates of ferricyanide reduction using an extinction coefficient of 1.04 mM^−1 ⋅ cm^−1 and a calculated pathlength of 0.6 cm.

[8] = test system: skeletal muscle mitochondria; test: Mitochondrial respiration (Seahorse XF24) in plate-attached skeletal muscle mitochondria; format: biochemical, rat
Description: The effects of small-molecule inhibitors on respiration were tested in plate-attached skeletal muscle mitochondria using a Seahorse XF24 Analyzer according to published protocols. Briefly, mitochondria (2 or 4 µg protein) were attached to Seahorse assay plates by centrifugation in a mannitol and sucrose-based medium (Seahorse MAS buffer) containing 0.3% (w/v) BSA without or with 250 nM free calcium at pH 7.0. […] Compounds were added in these media just prior to loading the assay plate into the Seahorse instrument. Additions were made to set respiration in basal state 2 (substrate only), phosphorylating state 3 (5 mM ADP), non-phosphorylating state 4o (0.5 ug ⋅ mL^−1 oligomycin), and to reveal the non-mitochondrial rate (2 µM myxothiazol and 2.5 µM antimycin A). Each concentration of compound was tested in at least two wells on each plate. At least three biological replicates of each titration in each substrate condition were performed.

SMILES: NOCC(=O)O [aminooxyacetate, reference compound]
effect on basal or maximal respiration with pyruvate (cortical synaptosomes; 10 mM pyruvate): no effect
effect on basal and maximal respiration with glucose (cortical synaptosomes; 15 mM glucose, no oxamate): inhibited

inhibition at 2500 µM (mGPDH [1]; 2.5 mM, 1.7 mM glycerol phosphate, 250 nM free calcium, read-out: inhibition of the rate of H2O2 production from mGPDH): ~80%
effect on the rate of H2O2 production from site IIF [3]: significantly inhibited
SMILES: O=CC(O)COP(=O)(O)O (stereo not shown) [glyceraldehyde 3-phosphate, reference compound]
effect on ΔΨm powered by glycerol phosphate ([2]; all concentrations tested, rotenone, atpenin A5, nigericin): significantly decreased
effect on ΔΨm powered by succinate [4]: significantly increased

IC50 (mGPDH [1]; Fig. 4 structure/activity microplate assay, 0.08–80 µM, estimated, means of two replicates, read-out: mGPDH H2O2 production IC50): 700 nM
IC50 (mGPDH [1]; Fig. 9B, read-out: mGPDH H2O2 Production IC50): 1000 ± 100 nM
inhibition at 80 µM (mGPDH [1]; read-out: mGPDH H2O2 production (% change at 80 μM)): 65%
IC50 (mGPDH [1]; titration up to 80 µM (Fig. 6B, Fig. 7B), read-out: half-maximal effect on H2O2 production by mGPDH): ~1000 nM
mGPDH Activity Hill Slope (mGPDH [7]; 1 µM free calcium): 0.85 and 0.85±0.07
IC50 (mGPDH [7]; 1 µM free calcium, Fig. 9A): 1000 ± 200 nM
K iu (uncompetitive inhibitor dissociation constant) (mGPDH [7]; co-varying glycerol phosphate and inhibitor): 1.1 ± 0.0 µM
Ki (mGPDH [7]; co-varying glycerol phosphate and inhibitor, read-out: K ic (competitive inhibitor dissociation constant)): 700 nM
SMILES: O=C(O)CCC(=O)Nc1ccc(-c2nc3cc4ccccc4cc3[nH]2)cc1 [iGP-5]
IQ H2O2 production with 5 mM Suc (% change at 80 μM) [5]: -9%
ΔΨm with GP + Nig (% change at 80 μM) ([2]; 80 μM, 4 µM rotenone, nigericin): -26%
effect on ΔΨm powered by glycerol phosphate ([2]; 2.5 and 25 µM): significantly decreased
effect on ΔΨm powered by glutamate and malate ([6]; 25 µM, only in the absence of nigericin): significantly increased
ΔΨm with Glu + Mal + Nig (% change at 80 μM) ([6]; 80 μM, 5 mM glutamate, 5 mM malate, with nigericin): 20%
ΔΨm with Glu + Mal (% change at 80 μM) ([6]; 80 μM, 5 mM glutamate, 5 mM malate, without nigericin): 106%
effect on state 3 respiration with pyruvate and malate ([8]; 80 µM): significantly reduced
effect on glycerol phosphate-dependent state 3 respiration ([8]; 25 and 80 µM): significantly decreased
